For series [1], the system named is rat mesangial cell line. Nature of the series: TGF-β stimulated 3H-proline incorporation in mesangial cells (Example 5). Particulars: for inhibition at 10 µM / inhibition at 30 µM / inhibition at 1 µM / inhibition at 3 µM: Rattus norvegicus, Mesangial cell, 5 ng/mL TGF-β1, 44 h, read-out: Mesangial Cell Assay TGF-β % reduction of TGF-β stimulation_proline inc.; for Collagen synthesis: inhibition ranked against tranilast (T) or FT11. The format is cell-based. The method, then: (§1) A well-characterized cloned rat mesangial cell line (gift of D Nikolic-Patterson) is cultured in DMEM with FBS, 100 U/mL penicillin, and 100 ug/mL streptomycin in a humidified 5% CO2 atmosphere at 37° C. Cells are plated into 24-well culture dishes in DMEM/10% FBS at low density and allowed to adhere overnight. Cells are used between passages 20 and 40. The subconfluent cells are starved overnight in DMEM/0.1% FBS containing 150 uM L-ascorbic acid, prior to 4 hours of pre-treatment with or without tranilast or the FT compounds, followed by the addition of 5 ng/mL rhTGF-β11 (R&D Systems) and 1 uCi/mL of L-(2,3,4,5-^3H)-proline. Control wells have the compounds but no TGF-β1 added. Cells are incubated for a further 44 hours during which time their appearance is visually monitored. The cells are then washed three times in ice-cold PBS, twice in ice cold 10% TCA and solubilized in 750 uL 1M NaOH for 45 minutes at 37° C. or overnight at 4° C. A 500 uL aliquot is neutralized with 500 uL 1M HCl and 10 mL scintillation fluid (Instagel Plus-Perkin-Elmer) added. Counts are performed on a beta counter.
To normalize the proline incorporation counts to take into account the proliferative effects of TGF-β1, a BioRad protein assay is performed on a 100-150 uL aliquot of the remaining solubilized cells. The sample is neutralized with an equal amount of 1M HCl prior to the assay. The BSA standards used to construct the standard curve have the same amount of 1M NaOH and 1M HCl added as is present in the samples for assay.
Proline incorporation is expressed as cpm/ug protein. In order to compare inter-assay results, the incorporation is expressed as percentage reduction of TGF stimulated proline incorporation, where TGF alone gives 0% reduction and the zero control gives 100% reduction.

Series [2] deals with Neonatal rat cardiac fibroblasts (NCFs). The series can be described thus: NCF TGF-β collagen synthesis, 3H-proline incorporation (Example 6). Format: cell-based. As to the method:
Neonatal SD rat cardiac myocytes (NCMs) and fibroblasts (NCFs) were isolated from one-day-old pups with enzymatic digestion as described in detail previously. NCFs were seeded and maintained in high-glucose (25 mmol/L) Dulbecco's modified Eagle's medium (DMEM) (Invitrogen Mount Waverley, Vic, Australia) in the presence of 1% antibiotic/antimycotic (AB/AM) and 10% fetal bovine serum (FBS) (JRH biosciences, Kansas, USA). NCFs were used at passage 2 [31]. Purified NCMs were seeded (1000 cells/mm^2) in 6-well plates and then maintained in serum-free DMEM (Invitrogen, NY, USA) supplemented with insulin and transferrin as described previously (4). Bromodeoxyuridine was included for the first 3 days. 50 mmol/L KCl was added to the medium to prevent spontaneous contraction characteristic of the plated NCMs.
NCFs collagen synthesis assays were performed as described previously. Briefly, NCFs plated at a density of 50,000 cells/well in 12-well plate and incubated overnight. NCFs were then serum starved for 24 hours in high-glucose DMEM. […]
For collagen synthesis, 1 μCi of [^3H]-Proline was added to each well and incubated for further 48 hours before harvest. Cells were harvested by precipitation with 10% TCA on ice for 30 min, before solubilisation with 0.75 mL of 1 mol/L NaOH overnight at 4° C. The samples were then neutralized with 1 mol/L HCl and ^3H level were counted with 10 ml scintillation fluid on a beta-counter to determine [^3H]-proline incorporation.

Series [3] has as its system rat mesangial cell line. Nature of the series: Effect on mesangial cell appearance (visual monitoring during proline assay). Format: cell-based. As to the method: as §1
Compounds in Bold have Minimal Effect on Cell Appearance and Viability

The test system of another series is Mesangial cells. Nature of the series: Mesangial cell MTT assay with TGF-β. Format: cell-based, rat. The note with it: suppressed = reduced cell viability. As to the method:
Mesangial cells are plated at 15000 cells per well into 96-well culture dishes in DMEM/10% FBS and allowed to adhere overnight. The subconfluent cells are starved overnight in DMEM/0.1% FBS, prior to 4 hours of pre-treatment with or without tranilast or the FT compounds. Following the addition of 5 ng/mL rhTGF-β1, the cells are incubated in a humidified 5% CO2 atmosphere at 37° C. for 44 hours. Control wells have the compounds but no TGF-β1 added. The culture medium is removed from each well and 100 uL MTT (0.5 mg/mL) in starve medium is added to each well. The plates are incubated for a further 4 hours at 37° C. The culture medium is then removed and replaced with 100 μL isopropanol and incubated at 37° C. for 20 to 30 minutes, until the blue formazan crystals have dissolved. The absorbance is measured at a wavelength of 570 nm with background subtraction of 690 nm.
Suppressed MTT Result Indicates Reduced Cell Viability

Here are results for seven molecules from patent US9561201B2, “Therapeutic compounds” (Fibrotech Therapeutics Pty Ltd, priority 2006, dated 2017).

Take `C#CCOc1cc(/C=C/C(=O)Nc2ccccc2C(=O)O)ccc1OC` [Analogue 17, (E)-2-[[3-(4-Methoxy-3-propargyloxyphenyl)-1-oxo-2-propenyl]amino]benzoic acid]: in the series with rat mesangial cell line [1], the inhibition at 10 µM lay within 20 to 50%, the inhibition at 30 µM is roughly 55% and the Collagen synthesis result is “>=FT11”. Besides, the “NCF TGF-β Collagen Synthesis” value in series [2] (@ 30 μM) is roughly 70% at.
Take `COc1cc(/C=C/C(=O)Nc2ccccc2C(=O)O)ccc1OC1CCCC1` [Analogue 26, (E)-2-{[3-(4-Cyclopentyloxy-3-methoxyphenyl)-1-oxo-2-propenyl]amino}benzoic acid]: the melting point (commonly the temperature, or range, at which the solid turns liquid) was 96 to 98 °C. For the same molecule, in the series on rat mesangial cell line [1], the inhibition at 1 µM was roughly 13%, the inhibition at 3 µM is 30%, the inhibition at 10 µM was determined as 85% and the inhibition at 30 µM was 93%. For the same molecule, in the series on rat mesangial cell line [1], the Collagen synthesis result is reported as “>FT11”. In addition, the “Effect on mesangial cell appearance” value in the series on rat mesangial cell line [3] (@ 30 μM) is “sparse”. In addition, the “Effect on mesangial cell appearance” value in the series on rat mesangial cell line [3] (@ 100 μM) is reported as “lifting off”. Besides, in series [2] (@ 10 μM), the “NCF TGF-β Collagen Synthesis” value is on record as 28% at.
Regarding `COc1cc(/C=C/C(=O)Nc2ccccc2C(=O)O)ccc1OCC1CCCCC1` [Analogue 28, (E)-2-{[3-(4-Cyclohexylmethoxy-3-methoxyphenyl)-1-oxo-2-propenyl]amino}benzoic acid], the melting point fell in the range of 207 to 210 °C. Further, in the series on rat mesangial cell line [1], the inhibition at 10 µM is roughly 40%, the inhibition at 30 µM amounted to 173% and the Collagen synthesis result was “<FT11”. For the same molecule, the “Effect on mesangial cell appearance” value in the series with rat mesangial cell line [3] (@ 30 μM) is recorded as “Stressed @”. Moreover, the “Effect on mesangial cell appearance” value in the series with rat mesangial cell line [3] (@ 100 μM) is on record as “Dead @”. Further, the “Mesangial cell MTT Assay TGF-β” value in the series on Mesangial cells (@ 10 μM) was “deadly ®”.
`COc1ccc(/C=C/C(=O)Nc2ccccc2C(=O)O)cc1OC1CCCC1` [Analogue 29, (E)-2-{[3-(3-Cyclopentyloxy-4-methoxyphenyl)-1-oxo-2-propenyl]amino}benzoic acid]: the melting point lay within 211 to 217 °C. In the series on rat mesangial cell line [1], the inhibition at 1 µM is roughly 8%, the inhibition at 3 µM worked out at 40%, the inhibition at 10 µM was roughly 90% and the Collagen synthesis entry is “>FT11”. Also, the “Effect on mesangial cell appearance” value in the series with rat mesangial cell line [3] (@ 10 μM) is “Sparse @”. Further, the “Effect on mesangial cell appearance” value in the series on rat mesangial cell line [3] (@ 100 μM) is given as “Stressed @”. Also, the “Mesangial cell MTT Assay TGF-β” value in the series on Mesangial cells (@ 30 μM) is recorded as “Suppressed”. For the same molecule, the “NCF TGF-β Collagen Synthesis” value in series [2] (@ 10 μM) stood at 10% @ 10 μM. For the same molecule, the “NCF TGF-β Collagen Synthesis” value in series [2] (@ 30 μM) is listed as 25% @ 30 μM.
`C#CCCCCOc1ccc(/C=C/C(=O)Nc2ccccc2C(=O)O)cc1OC` [Analogue 33, (E)-2-[[3-(4-(Hex-5-ynyloxy)-3-methoxyphenyl)-1-oxo-2-propenyl]amino]benzoic acid] registered a melting point of 148 to 150 °C. Also, in the series with rat mesangial cell line [1], the inhibition at 1 µM was roughly 15%, the inhibition at 3 µM is 40%, the inhibition at 10 µM turned out to be 60% and the inhibition at 30 µM came out at 80%. Moreover, the Collagen synthesis entry with rat mesangial cell line [1] is listed as “>FT11”. Besides, the “Effect on mesangial cell appearance” value in the series on rat mesangial cell line [3] (@ 30 μM) is recorded as “Looking bad”. In addition, the “Mesangial cell MTT Assay TGF-β” value in the series with Mesangial cells (@ 10 μM) is “Severely”.
Consider `C#CCCCCOc1cc(/C=C/C(=O)Nc2ccccc2C(=O)O)ccc1OC` [Analogue 34, (E)-2-[[3-(3-(Hex-5-ynyloxy)-4-methoxyphenyl)-1-oxo-2-propenyl]amino]benzoic acid], for which the melting point fell in the range of 135 to 137 °C. Also, in the series on rat mesangial cell line [1], the inhibition at 10 µM was roughly 80%, the inhibition at 30 µM was 94% and the Collagen synthesis result is recorded as “>FT11”. Besides, in the series with rat mesangial cell line [3] (@ 30 μM), the “Effect on mesangial cell appearance” value is “Looking bad”. Moreover, the “Mesangial cell MTT Assay TGF-β” value with Mesangial cells (@ 30 μM) is given as “Suppressed”.
For `C#CCCCOc1ccc(/C=C/C(=O)Nc2ccccc2C(=O)O)cc1OC` [Analogue 35, (E)-2-[[3-(3-Methoxy-4-(pent-4-ynyloxy)phenyl)-1-oxo-2-propenyl]amino]benzoic acid], the melting point lay in the range of 166.5 to 167.5 °C. Moreover, in the series on rat mesangial cell line [1], the inhibition at 3 µM is roughly 25%, the inhibition at 10 µM worked out at 50%, the inhibition at 30 µM was 60 to 100% and the Collagen synthesis result is “=>FT11”. Also, the “Effect on mesangial cell appearance” value in the series on rat mesangial cell line [3] (@ 30 μM) is given as “Looking bad”. The “Mesangial cell MTT Assay TGF-β” value in the series on Mesangial cells (@ 10 μM) is given as “Suppressed”.
